The source made the active and inactive calls. The calls are words filed in the database; no cut-off is given here.
How the values were obtained:
[1] = Inhibition of protein tyrosine kinase
[2] = biological target: Human immunodeficiency virus type 1 reverse transcriptase (Human immunodeficiency virus 1) (UniProt Q72547); experiment: Inhibition of HIV1 reverse transcriptase

Row | Activity [1] | Activity [2] | SMILES
1 | inactive | inactive | CC1=CC[C@@]2(C)C(=C(C)C(=O)[C@H](O)[C@@H]2C)[C@H](O)C1 (relative stereo)
2 | inactive | inactive | CC1=CC[C@@]2(C)C(=C(C)C(=O)[C@H](O)[C@@H]2C)CC1
3 | inactive | inactive | C=C1[C@@H]2CC[C@]13[C@H](C)C(=O)[C@@H](O)[C@@H](C)[C@]3(C)C2 (relative stereo)

Source: ChEMBL document CHEMBL1150686, “Three new sesquiterpenes from the red alga Laurencia perforata” (J Nat Prod, 2003)
